Here are results for 23 compounds from patent US20240279237A1, “FUSED BICYCLIC HETEROARYL COMPOUNDS USEFUL AS NLRP3 INHIBITORS” (Hoffmann-La Roche Inc., priority 2021, published 2024).

Where a name gives a salt, the structure may show the parent alone.

T1 sequence (Q96P20 whole entry): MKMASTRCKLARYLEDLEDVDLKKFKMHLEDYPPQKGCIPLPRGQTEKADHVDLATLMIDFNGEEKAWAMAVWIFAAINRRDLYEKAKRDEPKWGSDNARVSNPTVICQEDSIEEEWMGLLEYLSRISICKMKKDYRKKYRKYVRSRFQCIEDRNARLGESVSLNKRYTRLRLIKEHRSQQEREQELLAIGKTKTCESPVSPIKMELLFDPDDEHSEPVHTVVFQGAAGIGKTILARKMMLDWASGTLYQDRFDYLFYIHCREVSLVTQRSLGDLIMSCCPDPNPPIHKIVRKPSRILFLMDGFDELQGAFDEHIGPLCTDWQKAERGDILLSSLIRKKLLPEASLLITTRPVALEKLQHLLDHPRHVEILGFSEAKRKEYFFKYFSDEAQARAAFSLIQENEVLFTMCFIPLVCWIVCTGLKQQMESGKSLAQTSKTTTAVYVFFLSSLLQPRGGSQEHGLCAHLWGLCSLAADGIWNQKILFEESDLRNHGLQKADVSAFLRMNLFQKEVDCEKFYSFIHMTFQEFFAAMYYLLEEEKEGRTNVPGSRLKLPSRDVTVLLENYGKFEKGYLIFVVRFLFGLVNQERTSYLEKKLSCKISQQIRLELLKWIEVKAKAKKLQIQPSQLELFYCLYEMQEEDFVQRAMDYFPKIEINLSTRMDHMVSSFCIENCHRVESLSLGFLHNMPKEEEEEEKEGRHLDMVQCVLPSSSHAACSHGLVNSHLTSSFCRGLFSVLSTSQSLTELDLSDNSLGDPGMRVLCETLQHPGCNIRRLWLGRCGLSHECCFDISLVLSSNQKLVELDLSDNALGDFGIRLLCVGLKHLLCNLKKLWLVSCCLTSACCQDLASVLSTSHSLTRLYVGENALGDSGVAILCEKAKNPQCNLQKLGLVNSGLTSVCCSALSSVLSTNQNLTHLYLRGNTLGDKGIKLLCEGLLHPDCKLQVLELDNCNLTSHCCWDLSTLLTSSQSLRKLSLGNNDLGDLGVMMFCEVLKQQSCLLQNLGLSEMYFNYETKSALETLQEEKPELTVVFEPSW

This assay concerns the target T1, NLRP3 (Homo sapiens, UniProt Q96P20).
T1 construct: Seed THP-1 cells (25,000 cells/well) containing 1.0 μg/ml LPS in 40 μl of RPMI medium; host or cells: THP-1 cells
Put plainly: THP-1 Cells Pyroptosis Assay. Format: cell-based. Conditions: THP-1 cells with 1.0 μg/ml LPS; compound 3 hours; nigericin 5 μM 1 hr; resazurin readout. In a few lines:
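THP-1 cells in serum-free RPMI primed with LPS (1 μg/ml FAC), incubated with compound 3 h at 37 °C, then nigericin (5 μM FAC) for 1 h. Supernatant removed after spin; viability read by resazurin (100 μM FAC) reduction after a further 1-2 h at 37 °C.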
On the technique in general: Resazurin is reduced to fluorescent resorufin, in cell work by metabolically active cells.
As a reminder, the IC50 is the point on the concentration scale where inhibition reaches its midpoint. A lower IC50 goes with greater potency. `CCN1CCC(O)C(Nc2nc3nc(-c4c(C)cc(Cl)cc4O)ccc3o2)C1` (centres unmarked) [Example 124, 3-[[5-(4-Chloro-2-hydroxy-6-methyl-phenyl)oxazolo[4,5-b]pyridin-2-yl]amino]-1-ethyl-piperidin-4-ol] showed an IC50 of 0.0538 µM.
In the case of `Cc1cc(C#N)cc(O)c1-c1ccc2oc(N[C@@H]3CCC[C@H]3N(C)C)nc2n1` [Example 108, 4-[2-[[(1R,2R)-2-(Dimethylamino)cyclopentyl]amino]oxazolo[4,5-b]pyridin-5-yl]-3-hydroxy-5-methyl-benzonitrile] it was 0.0168 µM.
In the case of `Cc1cc(Cl)cc(O)c1-c1ccc2oc(N[C@@H]3CCC[C@H]3N(C)C)nc2n1` [Example 112, 5-Chloro-2-[2-[[(1R,2R)-2-(dimethylamino)cyclopentyl]amino]oxazolo[4,5-b]pyridin-5-yl]-3-methyl-phenol] it was 0.0066 µM; in that of `Cc1cc(C(F)(F)F)cc(O)c1-c1ccc2oc(NC34CCC(CC3)N(C)C4)nc2n1` [Example 120, 3-Methyl-2-[2-[(2-methyl-2-azabicyclo[2.2.2]octan-4-yl)amino]oxazolo[4,5-b]pyridin-5-yl]-5-(trifluoromethyl)phenol], 0.108 µM; in that of `CCN1CCCC(Nc2nc3nc(-c4c(C)cc(C(F)(F)F)cc4O)cnc3o2)C1` (racemic) [Example 32, (rac)-2-[2-[(1-Ethyl-3-piperidyl)amino]oxazolo[4,5-b]pyrazin-5-yl]-3-methyl-5-(trifluoromethyl)phenol;2,2,2-trifluoroacetic acid salt], 0.003 µM.
As for `Cc1cc(C(F)(F)F)cc(O)c1-c1ccc2oc(N3CC(O)C3)nc2n1` [Example 12, 1-[5-[2-Hydroxy-6-methyl-4-(trifluoromethyl)phenyl]oxazolo[4,5-b]pyridin-2-yl]azetidin-3-ol], the midpoint of inhibition, the IC50, lay at 0.215 µM.
In the case of `CCN1CCCC(c2nc3nc(-c4c(C)cc(C(F)(F)F)cc4O)ccc3o2)C1` (centres unmarked) [Example 138, 2-[2-(1-Ethyl-3-piperidyl)oxazolo[4,5-b]pyridin-5-yl]-3-methyl-5-(trifluoromethyl)phenol] it was 0.234 µM; in that of `COCc1cc(Cl)cc(O)c1-c1ccc2oc(N[C@@H]3C[C@H](O)CN(C)C3)nc2n1` [Example 100, (3S,5R)-5-[[5-[4-Chloro-2-hydroxy-6-(methoxymethyl)phenyl]oxazolo[4,5-b]pyridin-2-yl]amino]-1-methyl-piperidin-3-ol], 0.0184 µM; in that of `CCN1CCC[C@@H](Nc2nc3nc(-c4c(C)cc(Cl)c(F)c4O)ccc3o2)C1` [Example 21, 5-Chloro-2-[2-[[(3R)-1-ethyl-3-piperidyl]amino]oxazolo[4,5-b]pyridin-5-yl]-6-fluoro-3-methyl-phenol;2,2,2-trifluoroacetic acid salt], 0.0006 µM.
Turning to `Cc1cc(C(F)(F)F)cc(O)c1-c1ccc2oc(N[C@@H]3CCCN(C)C3)nc2n1` [Example 15, 3-Methyl-2-[2-[[(3R)-1-methyl-3-piperidyl]amino]oxazolo[4,5-b]pyridin-5-yl]-5-(trifluoromethyl)phenol], it took 0.0007 µM to reach half-maximal inhibition (IC50). This IC50 and that of the compound before are within 1.5-fold of each other.
The figure for `Cc1cc(Cl)cc(O)c1-c1ccc2oc(N[C@@H]3CCCN(CCO)C3)nc2n1` [Example 93, 5-Chloro-2-[2-[[(3R)-1-(2-hydroxyethyl)-3-piperidyl]amino]oxazolo[4,5-b]pyridin-5-yl]-3-methyl-phenol] is 0.0021 µM; for `COc1cc(C)c(-c2ccc3oc(N[C@@H]4CCCN(C)C4)nc3n2)c(O)c1` [Example 34, 5-Methoxy-3-methyl-2-[2-[[(3R)-1-methyl-3-piperidyl]amino]oxazolo[4,5-b]pyridin-5-yl]phenol] it is 0.0189 µM.
In the case of `CNC1CCCN(c2nc3nc(-c4c(C)cc(C(F)(F)F)cc4O)ccc3o2)C1` (racemic) [Example 10, (rac)-3-Methyl-2-[2-[3-(methylamino)-1-piperidyl]oxazolo[4,5-b]pyridin-5-yl]-5-(trifluoromethyl) phenol] it was 0.107 µM.
“5-Chloro-2-[2-[[(3R)-1-ethyl-3-piperidyl]amino]oxazolo[4,5-b]pyridin-5-yl]-3-(trifluoromethoxy)phenol;2,2,2-trifluoroacetic acid [Example 114]” displayed an IC50 of 0.0011 µM.
In the case of `Cc1cc(Cl)cc(O)c1-c1ccc2oc([C@@H]3CCC(=O)NC3)nc2n1` (single isomer, unassigned) [Example 73B, (5R)-5-[5-(4-Chloro-2-hydroxy-6-methyl-phenyl)oxazolo[4,5-b]pyridin-2-yl]piperidin-2-one or (5S)-5-[5-(4-chloro-2-hydroxy-6-methyl-phenyl)oxazolo[4,5-b]pyridin-2-yl]piperidin-2-one] it was 0.0787 µM; in that of `CN1CCC[C@@H](Nc2nc3nc(-c4c(O)cc(Cl)cc4CO)ccc3o2)C1` [Example 94, 5-Chloro-3-(hydroxymethyl)-2-[2-[[(3R)-1-methyl-3-piperidyl]amino]oxazolo[4,5-b]pyridin-5-yl]phenol], 0.0119 µM.
For `Cc1cc(Cl)cc(O)c1-c1ccc2oc(N[C@@H]3CCCN(C[C@@H]4CC[C@H]4O)C3)nc2n1` (racemic) [Example 118B, 5-chloro-2-[2-[[(3R)-1-[[rac trans-2-hydroxycyclobutyl]methyl]-3-piperidyl]amino]oxazolo[4,5-b]pyridin-5-yl]-3-methyl-phenol or 5-chloro-2-[2-[[(3R)-1-[[rac cis-2-hydroxycyclobutyl]methyl]-3-piperidyl]amino]oxazolo[4,5-b]pyridin-5-yl]-3-methyl-phenol], the IC50 is 0.0306 µM. Against the preceding compound, the IC50 is about 2.6-fold higher.
`Cc1cc(C(F)(F)F)cc(O)c1-c1ccc2oc(N3CCCC(O)C3)nc2n1` (single isomer, unassigned) [Example 3B, (3S or 3R)-1-[5-[2-hydroxy-6-methyl-4-(trifluoromethyl)phenyl]oxazolo[4,5-b]pyridin-2-yl]piperidin-3-ol] gave an IC50 of 0.0286 µM.
The figure for `Cc1cc(C(F)(F)F)cc(O)c1-c1ccc2[nH]c(C3CCCN3)nc2n1` (racemic) [Example 17, (rac)-3-Methyl-2-(2-(pyrrolidin-2-yl)-1H-imidazo[4,5-b]pyridin-5-yl)-5-(trifluoro-methyl)phenol] is 0.183 µM; for `CCN1CCC[C@@H](Nc2nc3nc(-c4c(O)cc(C(F)(F)F)cc4OC)ccc3o2)C1` [Example 31, 2-[2-[[(3R)-1-Ethyl-3-piperidyl]amino]oxazolo[4,5-b]pyridin-5-yl]-3-methoxy-5-(trifluoromethyl)phenol;2,2,2-trifluoroacetic acid salt] it is 0.004 µM.
The figure for `Cc1cc(C(F)(F)F)cc(O)c1-c1cc(C(C)O)c2oc(N[C@@H]3CCCN(C)C3)nc2n1` (stereo partly drawn) [Example 106, 2-[7-(1-Hydroxyethyl)-2-[[(3R)-1-methyl-3-piperidyl]amino]oxazolo[4,5-b]pyridin-5-yl]-3-methyl-5-(trifluoromethyl)phenol] is 0.022 µM; for `CCN1CCC[C@@H](Nc2nc3nc(-c4c(C)cc(C(F)(F)F)cc4O)cc(N(C)C)c3o2)C1` [Example 116, 2-[7-(Dimethylamino)-2-[[(3R)-1-ethyl-3-piperidyl]amino]oxazolo[4,5-b]pyridin-5-yl]-3-methyl-5-(trifluoromethyl)phenol] it is 0.0069 µM.
Consider `Cc1cc(Cl)cc(O)c1-c1ccc2oc(N[C@@H]3CCCN(C4COC4)C3)nc2n1` [Example 63, 5-Chloro-3-methyl-2-[2-[[(3R)-1-(oxetan-3-yl)-3-piperidyl]amino]oxazolo[4,5-b]pyridin-5-yl]phenol], for which the IC50 amounted to 0.0575 µM. Against the preceding compound, the IC50 is about 8.3-fold higher.
